Laboratory results taken from patent US8273754B2, “Substituted 1H-pyrazolo[3,4-D]pyrimidine-6-amine compounds” (ArQule, Inc., priority 2008, dated 2012).
Read-outs that look alike come from different tables or passages of the source.

System: cancer cells
Assay: MTS cell growth inhibition assay (72 hours)
Format: cell-based
In short: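 Growth inhibition read as formazan absorbance at 492 nm after 4 h MTS/PMS, following 72 h compound exposure at 37 °C in 1% FBS DMEM (cells pre-seeded 18 h). IC50 = 50% absorbance reduction; inhibition graded in bands.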

[1] = Homo sapiens, DLD-1, 72 h, DLD-1 cells, read-out: DLD-1 MTS 72 hr at 10 μM
[2] = Homo sapiens, KATO III, 72 h, KATO III cells, read-out: KATO III MTS 72 hr at 10 μM
[3] = Homo sapiens, MDA-MB-231, 72 h, MDA-MB-231 cells, read-out: MDA-MB-231 MTS 72 hr at 10 μM
[4] = Homo sapiens, NCI-H1299, 72 h, NCI-H1299 cells, read-out: NCI-H1299 MTS 72 hr at 10 μM
[5] = PaCa-2, 72 h, PACA-2 cells, read-out: PACA-2 MTS 72 hr at 10 μM

Row | SMILES | inhibition at 10 µM [1] | inhibition at 10 µM [2] | inhibition at 10 µM [3] | inhibition at 10 µM [4] | inhibition at 10 µM [5]
1 | Nc1nc(NC2Cc3ccccc3N(S(=O)(=O)c3cccc(NC(=O)NCc4ccccc4)c3)C2)c2cn[nH]c2n1 (centres unmarked) [Compound 210, 1-[3-({3-[(6-amino-1H-pyrazolo[3,4-d]pyrimidin-4-yl)amino]-3,4-dihydroquinolin-1(2H)-yl}sulfonyl)phenyl]-3-benzylurea] | < 50% | < 50% | < 50% | < 50% | < 50%
2 | COC(=O)CCc1ccc(S(=O)(=O)N2CC(Nc3nc(N)nc4[nH]ncc34)Cc3ccccc32)cc1 (centres unmarked) [Compound 73, methyl 3-(4-(3-(6-amino-1H-pyrazolo[3,4-d]pyrimidin-4-ylamino)-3,4-dihydroquinolin-1(2H)-ylsulfonyl)phenyl)propanoate] | < 50% | < 50% | < 50% | < 50% | < 50%
3 | Nc1nc(NC2Cc3ccccc3N(Cc3ccc4nccnc4c3)C2)c2cn[nH]c2n1 (centres unmarked) [Compound 133, N4-[1-(quinoxalin-6-ylmethyl)-1,2,3,4-tetrahydroquinolin-3-yl]-1H-pyrazolo[3,4-d]pyrimidine-4,6-diamine] | < 50% | < 50% | < 50% | < 50% | < 50%
4 | Nc1nc(NC2Cc3ccccc3N(S(=O)(=O)c3ccc(NC(=O)Nc4ccc(F)c(F)c4)cc3)C2)c2cn[nH]c2n1 (centres unmarked) [Compound 194, 1-[4-({3-[(6-amino-1H-pyrazolo[3,4-d]pyrimidin-4-yl)amino]-3,4-dihydroquinolin-1(2H)-yl}sulfonyl)phenyl]-3-(3,4-difluorophenyl)urea] | > 79% | > 79% | > 79% | > 79% | > 79%
5 | COc1cccc(CC(=O)N2CC(Nc3nc(N)nc4[nH]ncc34)Cc3ccccc32)c1 (centres unmarked) [Compound 101, 1-(3-(6-amino-1H-pyrazolo[3,4-d]pyrimidin-4-ylamino)-3,4-dihydroquinolin-1(2H)-yl)-2-(3-methoxyphenyl)ethanone] | > 79% | < 50% | 50 to 79% | < 50% | < 50%
6 | Nc1nc(NC2CCN(S(=O)(=O)c3ccc(Cl)c(Cl)c3)c3ccccc3C2)c2cn[nH]c2n1 (centres unmarked) [Compound 179, N4-{1-[(3,4-dichlorophenyl)sulfonyl]-2,3,4,5-tetrahydro-1H-1-benzazepin-4-yl}-1H-pyrazolo[3,4-d]pyrimidine-4,6-diamine] | 50 to 79% | 50 to 79% | < 50% | < 50% | < 50%
7 | Cc1cccc(C(=O)N2CC(Nc3nc(N)nc4[nH]ncc34)Cc3ccccc32)c1 (centres unmarked) [Compound 82, (3-(6-amino-1H-pyrazolo[3,4-d]pyrimidin-4-ylamino)-3,4-dihydroquinolin-1(2H)-yl)(m-tolyl)methanone] | < 50% | < 50% | < 50% | < 50% | < 50%
8 | Nc1nc(NC2Cc3ccccc3N(C(=O)Nc3cc(C(F)(F)F)ccc3F)C2)c2cn[nH]c2n1 (centres unmarked) [Compound 108, 3-(6-amino-1H-pyrazolo[3,4-d]pyrimidin-4-ylamino)-N-(2-fluoro-5-(trifluoromethyl)phenyl)-3,4-dihydroquinoline-1(2H)-carboxamide] | < 50% | < 50% | < 50% | < 50% | < 50%
9 | Nc1nc(NC2Cc3ccccc3N(C(=O)c3cccs3)C2)c2cn[nH]c2n1 (centres unmarked) [Compound 79, (3-(6-amino-1H-pyrazolo[3,4-d]pyrimidin-4-ylamino)-3,4-dihydroquinolin-1(2H)-yl)(thiophen-2-yl)methanone] | > 79% | > 79% | 50 to 79% | < 50% | > 79%
10 | Nc1nc(NC2Cc3ccccc3N(S(=O)(=O)c3cccc(NC(=O)Nc4ccc5c(c4)Cc4ccccc4-5)c3)C2)c2cn[nH]c2n1 (centres unmarked) [Compound 202, 1-[3-({3-[(6-amino-1H-pyrazolo[3,4-d]pyrimidin-4-yl)amino]-3,4-dihydroquinolin-1(2H)-yl}sulfonyl)phenyl]-3-(9H-fluoren-2-yl)urea] | > 79% | > 79% | > 79% | 50 to 79% | > 79%
11 | Cc1ccccc1NC(=O)Nc1cccc(S(=O)(=O)N2CC(Nc3nc(N)nc4[nH]ncc34)Cc3ccccc32)c1 (centres unmarked) [Compound 213, 1-[3-({3-[(6-amino-1H-pyrazolo[3,4-d]pyrimidin-4-yl)amino]-3,4-dihydroquinolin-1(2H)-yl}sulfonyl)phenyl]-3-(2-methylphenyl)urea] | < 50% | > 79% | < 50% | < 50% | 50 to 79%
12 | Nc1nc(NC2Cc3ccccc3N(S(=O)(=O)c3ccc(NC(=O)NC4CCCc5ccccc54)cc3)C2)c2cn[nH]c2n1 (centres unmarked) [Compound 192, 1-[4-({3-[(6-amino-1H-pyrazolo[3,4-d]pyrimidin-4-yl)amino]-3,4-dihydroquinolin-1(2H)-yl}sulfonyl)phenyl]-3-(1,2,3,4-tetrahydronaphthalen-1-yl)urea] | > 79% | > 79% | > 79% | > 79% | > 79%
13 | Cc1ccc(S(=O)(=O)N2CC(Nc3nc(N)nc4[nH]ncc34)Cc3ccccc32)cc1 (centres unmarked) [Compound 22, N4-(1-tosyl-1,2,3,4-tetrahydroquinolin-3-yl)-1H-pyrazolo[3,4-d]pyrimidine-4,6-diamine] | < 50% | < 50% | < 50% | < 50% | < 50%
14 | Nc1nc(NC2Cc3ccccc3N(C(=O)Nc3ccc(F)c(F)c3F)C2)c2cn[nH]c2n1 (centres unmarked) [Compound 120, 3-(6-amino-1H-pyrazolo[3,4-d]pyrimidin-4-ylamino)-N-(2,3,4-trifluorophenyl)-3,4-dihydroquinoline-1(2H)-carboxamide] | > 79% | > 79% | 50 to 79% | < 50% | > 79%
15 | Nc1nc(NC2Cc3ccccc3N(Cc3cn(-c4ccccc4)nc3-c3ccccc3)C2)c2cn[nH]c2n1 (centres unmarked) [Compound 151, N4-{1-[(1,3-diphenyl-1H-pyrazol-4-yl)methyl]-1,2,3,4-tetrahydroquinolin-3-yl}-1H-pyrazolo[3,4-d]pyrimidine-4,6-diamine] | > 79% | > 79% | < 50% | < 50% | > 79%
16 | Nc1nc(NC2Cc3ccccc3N(S(=O)(=O)c3ccc(Oc4ccccc4)nc3)C2)c2cn[nH]c2n1 (centres unmarked) [Compound 64, N4-(1-(6-phenoxypyridin-3-ylsulfonyl)-1,2,3,4-tetrahydroquinolin-3-yl)-1H-pyrazolo[3,4-d]pyrimidine-4,6-diamine] | < 50% | < 50% | < 50% | < 50% | < 50%
